Results on 41 compounds are retold here after US20230098332A1, “HETEROCYCLIC DERIVATIVES AS TRMP8 ANTAGONISTS” (Givaudan SA, priority 2020, published 2023).

SMILES strings stand for the structures. Structures can show the parent of a compound that is named as a salt.

The target of the experiment is T1, hTRPM8 (Homo sapiens, UniProt Q7Z2W7).
T1 construct: expressed in transfected cells
T1 sequence (Q7Z2W7 whole entry): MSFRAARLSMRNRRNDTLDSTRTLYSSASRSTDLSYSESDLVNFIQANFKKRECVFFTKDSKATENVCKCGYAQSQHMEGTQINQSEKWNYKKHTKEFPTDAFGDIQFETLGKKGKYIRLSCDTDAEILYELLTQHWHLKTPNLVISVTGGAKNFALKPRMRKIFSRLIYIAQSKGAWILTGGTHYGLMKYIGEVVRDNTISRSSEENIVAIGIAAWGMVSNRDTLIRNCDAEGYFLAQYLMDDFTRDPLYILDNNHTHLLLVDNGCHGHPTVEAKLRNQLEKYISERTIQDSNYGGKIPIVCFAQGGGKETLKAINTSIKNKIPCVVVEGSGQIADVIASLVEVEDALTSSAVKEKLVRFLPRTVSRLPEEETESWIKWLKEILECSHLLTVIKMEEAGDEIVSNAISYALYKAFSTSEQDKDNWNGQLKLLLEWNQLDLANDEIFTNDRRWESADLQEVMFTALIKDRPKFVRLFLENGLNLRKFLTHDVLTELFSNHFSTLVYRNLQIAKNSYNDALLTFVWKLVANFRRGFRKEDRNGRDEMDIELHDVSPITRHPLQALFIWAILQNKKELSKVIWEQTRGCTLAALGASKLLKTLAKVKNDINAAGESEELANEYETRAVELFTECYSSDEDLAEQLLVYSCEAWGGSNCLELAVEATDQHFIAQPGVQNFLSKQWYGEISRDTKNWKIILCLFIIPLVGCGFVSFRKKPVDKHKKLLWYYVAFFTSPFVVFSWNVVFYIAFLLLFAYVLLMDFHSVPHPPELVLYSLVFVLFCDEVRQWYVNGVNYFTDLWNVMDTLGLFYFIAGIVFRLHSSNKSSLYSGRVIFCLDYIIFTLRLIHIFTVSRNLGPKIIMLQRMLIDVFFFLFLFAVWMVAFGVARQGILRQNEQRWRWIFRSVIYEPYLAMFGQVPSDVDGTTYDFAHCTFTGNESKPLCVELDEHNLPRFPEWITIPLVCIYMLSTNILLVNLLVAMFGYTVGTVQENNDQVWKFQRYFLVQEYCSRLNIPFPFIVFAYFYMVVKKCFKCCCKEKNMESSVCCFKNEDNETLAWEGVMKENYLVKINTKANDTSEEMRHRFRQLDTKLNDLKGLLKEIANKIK
The experiment can be described thus: Assay on TRPM8 modulators: calcium imaging (Fluo-4, Flexstation) in HEK293 cell line stably expressing hTRPM8. In kind it is cell-based. Particulars: TRPM8 agonist activity, calcium influx, HEK293 stably expressing hTRPM8, sigmoidal dose-response fit. On the procedure:
A HEK293 cell line stably expressing hTRPM8 was generated according to Klein et al., (Chem. Senses 36: 649-658, 2011) and receptor activation was monitored by calcium imaging in a Flexstation. For Ca-imaging assays of TRPM8 channel activation, cells were seeded on day 0 at a density of 12000 cells per well in Dulbecco's modified Eagle medium (DMEM) containing 9% foetal bovine serum in black, clear bottom 96-well plates that had been coated with 0.001% polyethyleneimine (molecular weight=60 000, Acros Organics). On day 2, agonists were evaluated via calcium imaging using Fluo-4. Briefly, growth medium was discarded, and the cells were incubated in the dark for 1 h at 37° C. in 50 μL loading buffer consisting of 2.7 μM Fluo-4 AM (Invitrogen) and […] probenecid (Sigma-Aldrich) in DMEM (without serum). After incubation, the plates were washed five times with 100 μL of assay buffer (in mM: 130 NaCl, 5 KCl, 10 HEPES, 2 CaCl2, and 10 glucose, pH7.4.) and further incubated in the dark at room temperature for 30 min. The cells were then washed five times with 100 μL assay buffer and then calcium influx to serial dilutions of inventive compounds were measured in a Flexstation 3 (Molecular Devices). Receptor activation was initiated following addition of 20 μl of a 10-fold concentrated ligand stock solution, which is also prepared in assay buffer. Fluorescence was continuously monitored for 15 seconds prior to ligand addition and for 105 seconds after ligand addition, for a total of 120 seconds. Maximal receptor activation in relation to solvent control and relative to 31.6 μM menthol is determined. Data from serial dilutions were processed with a KNIME workflow to fit a sigmoidal dose-response curve and to extrapolate EC50 values.
As a reminder, the EC50 is the concentration needed to bring the measured effect to its halfway point. Take `Cc1ccc(CC(O)CN2CCN(C)CC2)c(Cc2ccccc2)c1` (centres unmarked) [compound 97, 1-(2-benzyl-4-methylphenyl)-3-(4-methylpiperazin-1-yl)propan-2-ol]: the concentration for a half-maximal effect (EC50) is 300 to 1000 nM.
To `Cc1cc(C)c(N(C)CCN2CCOCC2)c(Cc2ccccc2C#N)c1` [compound 126, 2-(3,5-dimethyl-2-(methyl(2-morpholinoethyl)amino)benzyl)benzonitrile] belongs less than 50 nM; to `CC1CCC(OCCN2CCN(C)CC2)C(Cc2ccccc2)C1` (centres unmarked) [compound 51, 1-(2-((2-benzyl-4-methylcyclohexyl)oxy)ethyl)-4-methylpiperazine], 1000 to 35000 nM; to `Cc1ccc(NCCN2CCN(C)CC2)c(Cc2ccccc2)c1` [compound 135, 2-benzyl-4-methyl-N-(2-(4-methylpiperazin-1-yl)ethyl)aniline], 1000 to 35000 nM.
To `Cc1ccc(OCCN2CCN(C)CC2)c(Cc2ccco2)c1` [compound 61, 1-(2-(2-(furan-2-ylmethyl)-4-methylphenoxy)ethyl)-4-methylpiperazine] belongs 1000 to 35000 nM.
To `Cc1cc(C)c(OCCN2CCOCC2)cc1Cc1c(F)c(F)c(F)c(F)c1F` [compound 155, 4-(2-(2,4-dimethyl-5-((perfluorophenyl)methyl)phenoxy)ethyl)morpholine] belongs 1000 to 35000 nM; to `Cc1cc(C)c(OC(C)CN2CCN(C)CC2)c(Cc2ccccc2C#N)c1` (centres unmarked) [compound 115, 2-(3,5-dimethyl-2-((1-(4-methylpiperazin-1-yl)propan-2-yl)oxy)benzyl)benzonitrile], 50 to 300 nM.
As for `Cc1ccc(N(C)CCN2CCOCC2)c(Cc2ccccc2F)c1` [compound 114, 2-(2-fluorobenzyl)-N,4-dimethyl-N-(2-morpholinoethyl)aniline], the EC50 lay within 50 to 300 nM.
Take `Cc1ccc(OCCN2CCN(C)CC2)c(/C=C2\CCCCC2=O)c1` [compound 46, (E)-2-(5-methyl-2-(2-(4-methylpiperazin-1-yl)ethoxy)benzylidene)cyclohexan-1-one]: the half-maximal effective concentration (EC50) lay in the range of 300 to 1000 nM.
Then `Cc1ccc(OCCN2CCN(C)CC2)c(Cc2cccc(Cl)c2)c1` [compound 59, 1-(2-(2-(3-chlorobenzyl)-4-methylphenoxy)ethyl)-4-methylpiperazine], with 1000 to 35000 nM; and `Cc1ccc(CC(=O)CN2CCN(C)CC2)c(Cc2ccccc2)c1` [compound 98, 1-(2-benzyl-4-methylphenyl)-3-(4-methylpiperazin-1-yl)propan-2-one], with 1000 to 35000 nM.
To `Cc1ccc(N(C)CCN2CCOCC2)c(Cc2c(F)cccc2F)c1` [compound 112, 2-(2,6-difluorobenzyl)-N,4-dimethyl-N-(2-morpholinoethyl)aniline] belongs less than 50 nM; to `Cc1cc(C)c(OC(C)CN2CCOCC2)c(Cc2ccccc2C#N)c1` (centres unmarked) [compound 49, 2-(3,5-dimethyl-2-((1-morpholinopropan-2-yl)oxy)benzyl)benzonitrile], 50 to 300 nM.
On to `Cc1ccc(OCCN2CCC(CO)CC2)c(Cc2ccccc2)c1` [compound 40, (1-(2-(2-benzyl-4-methylphenoxy)ethyl)piperidin-4-yl)methanol], for which the EC50 fell in the range of 1000 to 35000 nM.
Regarding `Cc1ccc(OCCN2CCN(C)CC2)c(C(O)c2ccccc2)c1` (centres unmarked) [compound 41, (5-methyl-2-(2-(4-methylpiperazin-1-yl)ethoxy)phenyl)(phenyl)methanol], the concentration giving a half-maximal response (EC50) lay in the range of 1000 to 35000 nM.
With `Cc1cc(C)c(OCCN2CCN(C)CC2)c(Cc2ccccc2C(F)(F)F)c1` [compound 62, 1-(2-(2,4-dimethyl-6-(2-(trifluoromethyl)benzyl)phenoxy)ethyl)-4-methylpiperazine], the half-maximal effective concentration (EC50) is 300 to 1000 nM.
As to `Cc1ccc(OCCN2CCOCC2)c(CC2CCCCC2=O)c1` (centres unmarked) [compound 131, 2-(5-methyl-2-(2-morpholinoethoxy)benzyl)cyclohexan-1-one], the half-maximal effective concentration (EC50) was 1000 to 35000 nM.
Consider `Cc1ccc(OCCN2CCN(C)CC2)c(Cc2ccc(Cl)cc2)c1` [compound 60, 1-(2-(2-(4-chlorobenzyl)-4-methylphenoxy)ethyl)-4-methylpiperazine hydrochloride], for which the concentration giving a half-maximal response (EC50) lay within 1000 to 35000 nM.
With `Cc1cc(C)c(OCCN2CCOCC2)c(Cc2ccccc2[N+](=O)[O-])c1` [compound 157, 4-(2-(2,4-dimethyl-6-(2-nitrobenzyl)phenoxy)ethyl)morpholine], the EC50 fell in the range of 300 to 1000 nM.
To `Cc1cc(C)c(OCCCN2CCOCC2)c(Cc2ccccc2C#N)c1` [compound 124, 2-(3,5-dimethyl-2-(3-morpholinopropoxy)benzyl)benzonitrile] belongs 50 to 300 nM.
To `C=C(c1ccccc1)c1cc(C)ccc1OCCN1CCN(C)CC1` [compound 102, 1-methyl-4-(2-(4-methyl-2-(1-phenylvinyl)phenoxy)ethyl)piperazine] belongs 300 to 1000 nM; to `Cc1cc(C)c(OCCN2CCN(C)CC2)c(Cc2ccccc2Br)c1` [compound 54, 1-(2-(2-(2-bromobenzyl)-4,6-dimethylphenoxy)ethyl)-4-methylpiperazine], 300 to 1000 nM; to `Cc1ccc(Oc2ccccc2C#N)c(CCCN2CCN(C)CC2)c1` [compound 127, 2-(4-methyl-2-(3-(4-methylpiperazin-1-yl)propyl)phenoxy)benzonitrile], 1000 to 35000 nM.
To `CC(C)c1ccc(OCCN2CCN(C)CC2)c(Cc2ccccc2)c1` [compound 75, 1-(2-(2-benzyl-4-isopropylphenoxy)ethyl)-4-methylpiperazine] belongs 1000 to 35000 nM; to `CCN1CCN(CCOc2ccc(Cl)cc2Cc2ccccc2)CC1` [compound 72, 1-(2-(2-benzyl-4-chlorophenoxy)ethyl)-4-ethylpiperazine hydrochloride], 1000 to 35000 nM.
In the case of `Cc1cc(C)c(OCCN2CCOCC2)c(Cc2c(F)cccc2C#N)c1` [compound 120, 2-(3,5-dimethyl-2-(2-morpholinoethoxy)benzyl)-3-fluorobenzonitrile], the concentration for a half-maximal effect (EC50) was in the range of 50 to 300 nM.
To `Cc1ccc(OCCC2CCN(C)CC2)c(Cc2ccccc2C#N)c1` [compound 128, 2-(5-methyl-2-(2-(1-methylpiperidin-4-yl)ethoxy)benzyl)benzonitrile] belongs 1000 to 35000 nM.
To `Cc1ccc(CCCN2CCN(C)CC2)c(Oc2ccccc2C#N)c1` [compound 133, 2-(5-methyl-2-(3-(4-methylpiperazin-1-yl)propyl)phenoxy)benzonitrile] belongs 50 to 300 nM; to `Cc1ccc(OCCN2CCN(C)CC2)c(CC(C)C)c1` [compound 94, 1-(2-(2-isobutyl-4-methylphenoxy)ethyl)-4-methylpiperazine], 1000 to 35000 nM.
To `CCN1CCN(CCOc2ccc(C)cc2Cc2ccccc2)CC1` [compound 76, 1-(2-(2-benzyl-4-methylphenoxy)ethyl)-4-ethylpiperazine hydrochloride] belongs 1000 to 35000 nM; to `Cc1cc(C)c(CCCN2CCOCC2)c(Oc2ccccc2F)c1` [compound 162, 4-(3-(2-(2-fluorophenoxy)-4,6-dimethylphenyl)propyl)morpholine], less than 50 nM; to `Cc1cc(C)c(OCCN2CCOCC2)c(Cc2c(Cl)cccc2Cl)c1` [compound 148, 4-(2-(2-(2,6-dichlorobenzyl)-4,6-dimethylphenoxy)ethyl)morpholine], 300 to 1000 nM.
In the case of `Cc1ccc(OCC(C)N2CCOCC2)c(Cc2ccccc2C#N)c1` (centres unmarked) [compound 132, 2-(5-methyl-2-(2-morpholinopropoxy)benzyl)benzonitrile], the half-maximal effective concentration (EC50) lay within 300 to 1000 nM.
To `CCc1ccc(OCCN2CCN(C)CC2)c(Cc2ccccc2)c1` [compound 74, 1-(2-(2-benzyl-4-ethylphenoxy)ethyl)-4-methylpiperazine hydrochloride] belongs 300 to 1000 nM; to `Cc1ccc(OCCN2CC[S+]([O-])CC2)c(Cc2ccccc2)c1` [compound 160, 4-(2-(2-benzyl-4-methylphenoxy)ethyl)thiomorpholine 1-oxide], 1000 to 35000 nM; to `Cc1cc(C)c(OCCN2CCOCC2)c(Cc2cc(F)c(F)cc2F)c1` [compound 156, 4-(2-(2,4-dimethyl-6-(2,4,5-trifluorobenzyl)phenoxy)ethyl)morpholine], 1000 to 35000 nM.
Regarding `Cc1ccc(O)c(Cc2cc(C)ccc2OCCN2CCN(C)CC2)c1` [compound 163, 4-methyl-2-(5-methyl-2-(2-(4-methylpiperazin-1-yl)ethoxy)benzyl)phenol], the EC50 lay in the range of 1000 to 35000 nM.
To `Cc1cccc(OCCN2CCN(C)CC2)c1Cc1ccccc1` [compound 68, 1-(2-(2-benzyl-3-methylphenoxy)ethyl)-4-methylpiperazine] belongs 1000 to 35000 nM; to `Cc1ccc(C)c(OCCN2CCN(C)CC2)c1Cc1ccccc1` [compound 66, 1-(2-(2-benzyl-3,6-dimethylphenoxy)ethyl)-4-methylpiperazine], 1000 to 35000 nM.
Then `Cc1ccc(OC(C)CN2CCN(C)CC2)c(Cc2ccccc2)c1` (centres unmarked) [compound 91, 1-(2-(2-benzyl-4-methylphenoxy)propyl)-4-methylpiperazine hydrochloride], with 300 to 1000 nM; and `Cc1cc(C)c(N(C)CCN2CCOCC2)c(Cc2c(F)cccc2F)c1` [compound 111, 2-(2,6-difluorobenzyl)-N,4,6-trimethyl-N-(2-morpholinoethyl)aniline], with 300 to 1000 nM.
